Each molecule was assayed on HCT116 cells (assay: Inhibition of cell proliferation by CTG (CellTiter-Glo) luminescence assay). Conditions: Homo sapiens, HCT-116; 72 h incubation, CellTiter-Glo; read-out: HCT116, IC50.
Format: cell-based
Source text: Test Example 2. Determination of Compound-Mediated Inhibition of Cell Proliferation by CTG (CellTiter-Glo) Luminescence Assay
Principle: The Promega CellTiter-Glo™ luciferase reagent was used. Luciferase consumes ATP to generate light; metabolically active cells continuously produce ATP through respiration and other processes. After adding an equal volume of CellTiter-Glo™ reagent to the culture medium, the resulting luminescence is directly proportional to the ATP content, which in turn correlates with the number of viable cells. Thus, the assay quantifies compound-induced suppression of cell proliferation.
Experimental Procedure: HCT116 cells (ATCC) were revived in complete medium (McCoy's 5a + 10 % FBS). After two passages, exponentially growing cells were harvested, counted, and resuspended to the appropriate density. A 100 µL aliquot of cell suspension (2 000 cells per well) was seeded into 96-well plates and incubated overnight (37 °C, 5 % CO2, 100 % relative humidity). Test compounds were dissolved in DMSO to prepare 10 mM stock solutions and serially diluted 1:3 in DMSO to generate nine concentration steps. Each DMSO solution was further diluted 200-fold into medium; 25 µL of the resulting solutions were added to the cell plates (final DMSO concentration […]). After 72 h incubation (37 °C, 5 % CO2), 50 µL of CellTiter-Glo reagent was added per well. Plates were shaken gently, incubated for 30 min at room temperature in the dark, and luminescence was read on an EnVision multimode reader. Percent inhibition was calculated as: Inhibition % = (1−As/Ac) × 100, [formula] where As = signal from compound-treated wells and Ac = signal from DMSO-only control wells. Concentration-response data were fitted in Excel with the XLfit add-in using the four-parameter logistic equation: Y = Bottom + (Top−Bottom)/[1+((IC50/X))^(∧)HillSlope], [formula] to derive the IC50 value for each compound. Table 2. IC50 of compounds

Row | Structure (SMILES) | IC50 [nM]
1 | CC[C@@]1(O)C(=O)OCc2c1cc1n(c2=O)Cc2c-1c(=O)c1cc(F)ccc1n2C[C@H]1CCN(C(C)C)C1 [Example 404] | < 20
2 | CC[C@@]1(O)C(=O)OCc2c1cc1n(c2=O)Cc2c-1c(=O)c1cc(F)ccc1n2[C@@H]1CCCN(C2CCCC2)C1 [Example 370] | < 20
3 | CC[C@@]1(O)C(=O)OCc2c1cc1n(c2=O)Cc2c-1c(=O)c1cc(F)c(F)cc1n2[C@@H]1CCN(C)C1 [Example 277] | < 20
4 | CC[C@@]1(O)C(=O)OCc2c1cc1n(c2=O)Cc2c-1c(=O)c1cc(F)ccc1n2[C@@H]1CCN(C2CC2)C1 [Example 274, (4S)-11-((3R)-1-cyclopropylpyrrolidin-3-yl)-4-ethyl-8-fluoro-4-hydroxy-1H-pyrano[3',4':6,7]indolizino[2,1-b]quinoline-3,6,14(4H,11H,12H)-trione] | < 20
5 | CC[C@@]1(O)C(=O)OCc2c1cc1n(c2=O)Cc2c-1c(=O)c1cc(F)c(CO)cc1n2C1CC2(CCC2)C1 [Example 312] | < 20
6 | CC[C@@]1(O)C(=O)OCc2c1cc1n(c2=O)Cc2c-1c(=O)c1cc(F)ccc1n2[C@@H]1CCN(C(C)C)C1 [Example 263, (S)-4-ethyl-8-fluoro-4-hydroxy-11-((R)-1-isopropylpyrrolidin-3-yl)-1H-pyrano[3,4:6,7]indolizino[2,1-b]quinoline-3,6,14 (4H,11H,12H)-trione] | < 20
7 | CC[C@@]1(O)C(=O)OCc2c1cc1n(c2=O)Cc2c-1c(=O)c1cc(F)c(C)cc1n2[C@@H]1CCN(C2CC(F)(F)C2)C1 [Example 280] | < 20
8 | CC[C@@]1(O)C(=O)OCc2c1cc1n(c2=O)Cc2c-1c(=O)c1cc(F)ccc1n2[C@@H]1CCN(C2CC3(CCC3)C2)C1 [Example 270, (S)-4-ethyl-8-fluoro-4-hydroxy-11-((R)-1-(spiro[3.3]heptan-2-yl)pyrrolidin-3-yl)-1H-pyrano[3,4:6,7]indolizino[2,1-b] quinoline-3,6,14(4H,11H,12H)-trione] | < 20
9 | CC[C@@]1(O)C(=O)OCc2c1cc1n(c2=O)Cc2c-1c(=O)c1cc(F)ccc1n2[C@@H]1CCN(C2CC3CC3C2)C1 (stereo partly drawn) [Example 273, (4S)-11-((3R)-1-(bicyclo[3.1.0]hexan-3-yl)pyrrolidin-3-yl)-4-ethyl-8-fluoro-4-hydroxy-1H-pyrano[3',4':6,7]indolizino[2,1-b]quinoline-3,6,14(4H,11H,12H)-trione] | < 20
10 | CC[C@@]1(O)C(=O)OCc2c1cc1n(c2=O)Cc2c-1c(=O)c1cc(F)ccc1n2C[C@H]1CCN(C2CC(F)(F)C2)C1 [Example 402] | < 20
11 | CC[C@@]1(O)C(=O)OCc2c1cc1n(c2=O)Cc2c-1c(=O)c1cc(F)ccc1n2[C@@H]1CCN(C2CC(C)(C)C2)C1 [Example 254, (S)-4-ethyl-8-fluoro-4-hydroxy-11-((R)-1-(3,3-dimethylcyclobutyl)pyrrolidin-3-yl)-1,12-dihydro-14H-pyrano[3',4':6,7]indolizino[2,1-b]quinoline-3,6,14(4H,11H)-trione] | < 20
12 | CCN1CC[C@@H](n2c3c(c(=O)c4cc(F)ccc42)-c2cc4c(c(=O)n2C3)COC(=O)[C@]4(O)CC)C1 [Example 251, (S)-4-ethyl-8-fluoro-4-hydroxy-11-((R)-1-ethylpyrrolidin-3-yl)-1,12-dihydro-14H-pyrano[3',4':6,7]indolizino[2,1-b] quinoline-3,6,14(4H,11H)-trione] | < 20
13 | CCC(CC)N1CC[C@@H](n2c3c(c(=O)c4cc(F)ccc42)-c2cc4c(c(=O)n2C3)COC(=O)[C@]4(O)CC)C1 [Example 261, (S)-4-ethyl-8-fluoro-4-hydroxy-11-((R)-1-(pentan-3-yl)pyrrolidin-3-yl)-1H-pyrano[3,4:6,7]indolizino[2,1-b]quinoline-3,6,14 (4H,11H,12H)-trione] | < 20
14 | CC[C@@]1(O)C(=O)OCc2c1cc1n(c2=O)Cc2c-1c(=O)c1cc(F)c(N)cc1n2-c1cc(C)cc(C)c1 [Example 350] | < 20
15 | CC[C@@]1(O)C(=O)OCc2c1cc1n(c2=O)Cc2c-1c(=O)c1cc(F)ccc1n2[C@@H]1CCN(CC(C)C)C1 [Example 260, (S)-4-ethyl-8-fluoro-4-hydroxy-11-((R)-1-isobutylpyrrolidin-3-yl)-1H-pyrano[3',4':6,7]indolizino[2,1-b]quinoline-3,6,14 (4H,11H,12H)-trione] | < 20
16 | CC[C@@]1(O)C(=O)OCc2c1cc1n(c2=O)Cc2c-1c(=O)c1cc(F)c([C@H](O)C(F)(F)F)cc1n2C1CCCC1 (single isomer, unassigned) [Example 347] | < 20
17 | CC[C@@]1(O)C(=O)OCc2c1cc1n(c2=O)Cc2c-1c(=O)c1cc(F)ccc1n2[C@@H]1CCN(C2CCC(F)(F)CC2)C1 [Example 267, (S)-11-((R)-1-(4,4-difluorocyclohexyl)pyrrolidin-3-yl)-4-ethyl-8-fluoro-4-hydroxy-1H-pyrano[3,4:6,7]indolizino[2,1-b]quinoline-3,6,14(4H,11H,12H)-trione] | < 20
18 | CCCN1CC[C@@H](n2c3c(c(=O)c4cc(F)ccc42)-c2cc4c(c(=O)n2C3)COC(=O)[C@]4(O)CC)C1 [Example 258, (S)-4-ethyl-8-fluoro-4-hydroxy-11-((R)-1-n-propylpyrrolidin-3-yl)-1,12-dihydro-14H-pyrano[3',4':6,7]indolizino[2,1-b] quinoline-3,6,14(4H,11H)-trione] | < 20
19 | CCC1(O)C(=O)OCc2c1cc1n(c2=O)Cc2c-1c(=O)c1cc(F)c(CO)cc1n2C12CC(C1)C2 (stereo not drawn) [Example 327] | < 20
20 | CC[C@@]1(O)C(=O)OCc2c1cc1n(c2=O)Cc2c-1c(=O)c1cc(F)ccc1n2[C@@H]1CCN(C2CC3(CC3)C2)C1 [Example 271, (S)-4-ethyl-8-fluoro-4-hydroxy-11-((R)-1-(spiro[2.3]hexan-5-yl)pyrrolidin-3-yl)-1H-pyrano[3',4':6,7]indolizino[2,1-b]quinoline-3,6,14(4H,11H,12H)-trione] | < 20
21 | CC[C@@]1(O)C(=O)OCc2c1cc1n(c2=O)Cc2c-1c(=O)c1cc(F)c(N)cc1n2C1CC2(CCC2)C1 [Example 358] | < 20
22 | CC[C@@]1(O)C(=O)OCc2c1cc1n(c2=O)Cc2c-1c(=O)c1cc(F)c(Cl)cc1n2[C@@H]1CCN(C)C1 [Example 283] | < 20
23 | CC[C@@]1(O)C(=O)OCc2c1cc1n(c2=O)Cc2c-1c(=O)c1cc(F)c(N)cc1n2C12CC(C1)C2 [Example 359] | < 20
24 | CC[C@@]1(O)C(=O)OCc2c1cc1n(c2=O)Cc2c-1c(=O)c1cc(F)c(Cl)cc1n2[C@@H]1CCN(C2CCC2)C1 [Example 282] | < 20
25 | CC[C@@]1(O)C(=O)OCc2c1cc1n(c2=O)Cc2c-1c(=O)c1cc(F)c(CC(C)O)cc1n2C1CCC(C)(C)CC1 (stereo partly drawn) [Example 317] | < 20
26 | CC[C@@]1(O)C(=O)OCc2c1cc1n(c2=O)Cc2c-1c(=O)c1cc(F)ccc1n2[C@H]1CCCN(C2CC(F)(F)C2)C1 [Example 372] | < 20
27 | CC[C@@]1(O)C(=O)OCc2c1cc1n(c2=O)Cc2c-1c(=O)c1cc(F)ccc1n2[C@@H]1CCN(C2CC(F)(F)C2)C1 [Example 255, (S)-4-ethyl-8-fluoro-4-hydroxy-11-((R)-1-(3,3-difluorocyclobutyl)pyrrolidin-3-yl)-1,12-dihydro-14H-pyrano[3',4':6,7]indolizino[2,1-b]quinoline-3,6,14(4H,11H)-trione] | < 20

From patent EP4778929A1, “NOVEL TYPE I TOPOISOMERASE INHIBITOR, AND PREPARATION METHOD THEREFOR AND USE THEREOF” (priority 2023, dated 2025)
